# Measured values: ChEMBL document CHEMBL1201862, “PubChem BioAssay data set” (2004)
#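 These data come from cells grown in 96-well plates and exposed to compound for 48 hours at five concentrations. At the GI50, growth is halved.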 Calls of active or inactive are those of the source. Rule as the data show it: active = GI50 up to about 1.1 µM and inactive = higher.
# Columns and labels:
# Experiment in all cases: NCI tumour cell line growth inhibition, 48 h
# [1] = test system: SK-OV-3
# [2] = test system: OVCAR-8
# [3] = test system: PC-3
# [4] = test system: UACC-62
# [5] = test system: KM12
# [6] = test system: M14
# [7] = test system: T47D
# [8] = test system: A549
# [9] = test system: OVCAR-3
# [10] = test system: NCI-H23
# [11] = test system: MOLT-4
# [12] = test system: NCI-H226
# [13] = test system: 786-0
# [14] = test system: EKVX
# [15] = test system: UACC-257
# [16] = test system: SF-539
# [17] = test system: SNB-19
# [18] = test system: SN12C
# [19] = test system: SNB-75
# [20] = test system: NCI-H460
SMILES,GI50 [1],GI50 [2],GI50 [3],GI50 [4],GI50 [5],GI50 [6],GI50 [7],GI50 [8],GI50 [9],GI50 [10],GI50 [11],GI50 [12],GI50 [13],GI50 [14],GI50 [15],GI50 [16],GI50 [17],GI50 [18],GI50 [19],GI50 [20]
Cc1cc(NS(=O)(=O)c2ccc(NC(=O)c3cccc4c(NNc5ccc(S(N)(=O)=O)cc5)c5ccccc5nc34)cc2)no1,36.3 µM (inactive),47.9 µM (inactive),33.7 µM (inactive),43.4 µM (inactive),38.1 µM (inactive),67.1 µM (inactive),26 µM (inactive),> 100 µM (inactive),26.7 µM (inactive),64.7 µM (inactive),31 µM (inactive),34 µM (inactive),54.6 µM (inactive),33.4 µM (inactive),> 100 µM (inactive),> 100 µM (inactive),60.4 µM (inactive),49.9 µM (inactive),31.7 µM (inactive),34.9 µM (inactive)
Cc1cccc(/N=N/c2ccc(O)c(CN(C)C)c2)c1,41.7 µM (inactive),21.3 µM (inactive),36.4 µM (inactive),8.95 µM (inactive),13.4 µM (inactive),27.4 µM (inactive),11.5 µM (inactive),32.4 µM (inactive),17.2 µM (inactive),57.8 µM (inactive),20 µM (inactive),30.9 µM (inactive),18.9 µM (inactive),20.3 µM (inactive),17.5 µM (inactive),18.2 µM (inactive),41.9 µM (inactive),62.4 µM (inactive),29 µM (inactive),16.7 µM (inactive)
CCCCCCCCCCCCCCCCCCNc1ccn(C2OC(COP(=O)(O)OCC3OC(n4cc(C)c(=O)[nH]c4=O)CC3F)C(O)C2O)c(=O)n1 (stereo not given),8.63 µM (inactive),8.51 µM (inactive),1.61 µM (inactive),6.24 µM (inactive),5.22 µM (inactive),8.17 µM (inactive),7.38 µM (inactive),11.2 µM (inactive),7.24 µM (inactive),8.65 µM (inactive),3.13 µM (inactive),37.8 µM (inactive),4.06 µM (inactive),10.3 µM (inactive),10.4 µM (inactive),9.46 µM (inactive),6.5 µM (inactive),7.87 µM (inactive),19.8 µM (inactive),7.41 µM (inactive)
C=C1[C@@H](C)[C@H]2[C@H](Cc3ccccc3)NC(=O)[C@]23OC(=O)/C=C/[C@H](O)CCC[C@@H](C)C/C=C/[C@H]3[C@@H]1O,32.6 µM (inactive),5.43 µM (inactive),3.76 µM (inactive),22.8 µM (inactive),53.3 µM (inactive),> 100 µM (inactive),2.92 µM (inactive),2.85 µM (inactive),7.48 µM (inactive),7 µM (inactive),4.04 µM (inactive),1.18 µM (inactive),7.62 µM (inactive),10.7 µM (inactive),9.62 µM (inactive),0.465 µM (active),5.66 µM (inactive),3.87 µM (inactive),0.0748 µM (active),2.62 µM (inactive)
Cc1ccc(N(Cc2ccccc2)Cc2ccccc2)cc1,> 100 µM (inactive),> 100 µM (inactive),48.4 µM (inactive),82.4 µM (inactive),29.5 µM (inactive),55.2 µM (inactive),30.9 µM (inactive),36.9 µM (inactive),32.8 µM (inactive),> 100 µM (inactive),23.8 µM (inactive),> 100 µM (inactive),73.3 µM (inactive),35.8 µM (inactive),42.4 µM (inactive),> 100 µM (inactive),> 100 µM (inactive),72.3 µM (inactive),68.7 µM (inactive),> 100 µM (inactive)
